{"source": "patent US11925702B2", "about": "“Methods for extracting compound from ginseng, ginseng extract comprising the compound and composition for enhancing skin barrier comprising the same” (AMOREPACIFIC CORPORATION, priority 2022, dated 2024)", "assay_type_in_all_cases": "cell-based, human", "key": {"[1]": {"test_system": "ATP-binding cassette sub-family A member 12 (ABCA12) gene", "assay": "ABCA12 gene expression in NHEK by Taqman real-time PCR", "conditions": "isolated compound added to NHEK culture media, concentration series (FIG. 7)", "procedure": "(§1) (1) Normal human epidermal keratinocytes (NHEK) were cultured in 6-well culture media. The anaerobic-naturally fermented ginseng extract of the preparation example and an unfermented fresh ginseng extract were respectively added to the NHEK media and cultured. After harvesting the cells on the 4th day, separating RNA therefrom, and synthesizing cDNA through RT-PCR (reverse transcriptional polymerase chain reaction), the synthesized cDNA was measured with respect to an expression level of the Filaggrin gene through Taqman real-time PCR, and the results are shown in FIG. 4.\n(§2) (2) The compound represented by Chemical Formula 1-1, which was separated from the anaerobic-naturally fermented ginseng extract of the preparation example, was added to an NHEK culture media and treated in the same manner as in (1), and then measured with respect to each gene expression level of Filaggrin, Occludin, and ATP-binding cassette sub-family A member 12 (ATP-binding cassette transporter 12), and the results are shown in FIGS. 5 to 7."}, "Occludin (OCLN) gene": {"test_system": "Occludin (OCLN) gene", "assay": "Occludin (OCLN) gene expression in NHEK by Taqman real-time PCR", "conditions": "isolated compound added to NHEK culture media, concentration series (FIG. 6)", "procedure": "as §1, §2"}, "Filaggrin (FLG) gene": {"test_system": "Filaggrin (FLG) gene", "assay": "Filaggrin (FLG) gene expression in NHEK by Taqman real-time PCR", "conditions": "isolated compound added to NHEK culture media, concentration series (FIG. 5)", "procedure": "as §1, §2"}}}
{"smiles": "CC(C)=CCC[C@](C)(O[C@@H]1O[C@H](CO[C@@H]2O[C@H](CO)[C@@H](O)[C@H](O)[C@H]2O)[C@@H](O)[C@H](O)[C@H]1O)[C@H]1CC[C@]2(C)[C@@H]1[C@H](O)C[C@@H]1[C@@]3(C)CC[C@H](O[C@@H]4O[C@H](CO)[C@@H](O)[C@H](O)[C@H]4O)C(C)(C)[C@@H]3CC[C@]12C", "note": "[Chemical Formula 1-1]", "values": [{"measurement": "gene expression level of ATP-binding cassette sub-family A member 12 (ABCA12)", "setting": "[1]", "result": "increased, as a concentration thereof was increased"}, {"measurement": "gene expression level of Occludin (OCLN)", "setting": "Occludin (OCLN) gene", "result": "increased, as a concentration thereof was increased"}, {"measurement": "gene expression level of Filaggrin (FLG)", "setting": "Filaggrin (FLG) gene", "result": "increased, as a concentration thereof was increased"}]}
